# Experimental data taken from US11136325B2, “Pyrrolopyrimidine and pyrrolopyridine derivatives” (GALAPAGOS NV, priority 2017, dated 2021).
# System: CFA induced hypersensitivity in rat
# Test: CFA induced hypersensitivity in rat assessed using weight bearing method
# Format: in vivo
# Conditions: 10 mg/kg, 24 hours post CFA, 1, 2 and 4 hours post treatment
# Description: Intraplantar injection of Complete Freunds adjuvant (CFA) causes an inflammatory reaction which induces hypersensitivity and oedema, and mimics some aspects of clinical inflammatory pain. These effects can be investigated using equipment to measure weight bearing and plethysmometer.
# Naive rats distribute their body weight equally between the two hind paws. However, when the injected (left) hind paw is inflamed and/or painful, the weight is re-distributed so that less weight is put on the affected paw (decrease in weight bearing on injured paw). Weight bearing through each hind limb was measured using a rat incapacitance tester (Linton Instruments, UK).
# Rats were placed in the incapacitance tester with the hind paws on separate sensors and the average force exerted by both hind limbs was recorded over 4 seconds.
# Base line weight bearing and paw volume readings were taken and hypersensitivity was induced via injection of CFA (Baseline weight bearing and paw volume recordings were taken prior to induction of insult. Inflammatory hypersensitivity was induced by intraplantar injection of CFA (100 μL of 1 mg/mL solution) intraplantar to the rats left hind paw.
# Animals (Male, Sprague Dawley Rats (Charles River, UK), 212-260 g) were ranked and randomised to treatment groups according to the weight bearing CFA window in a Latin square design. […]
compound,measurement,value
"COc1ccc2c(c1)c(CC(=O)O)c(C)n2C(=O)c1ccc(Cl)cc1 [Indomethacin, reference compound]",hypersensitivity response (weight bearing),significantly inhibited
